Reference: patent publication US12427144B2, “Compounds and methods for the targeted degradation of androgen receptor” (Arvinas Operations, Inc., priority 2019, dated 2025)

Molecular target: T1, Androgen Receptor (AR) (Homo sapiens, UniProt P10275)
T1 construct: endogenous in cells; host or cells: VCaP
T1 sequence (P10275 1-920): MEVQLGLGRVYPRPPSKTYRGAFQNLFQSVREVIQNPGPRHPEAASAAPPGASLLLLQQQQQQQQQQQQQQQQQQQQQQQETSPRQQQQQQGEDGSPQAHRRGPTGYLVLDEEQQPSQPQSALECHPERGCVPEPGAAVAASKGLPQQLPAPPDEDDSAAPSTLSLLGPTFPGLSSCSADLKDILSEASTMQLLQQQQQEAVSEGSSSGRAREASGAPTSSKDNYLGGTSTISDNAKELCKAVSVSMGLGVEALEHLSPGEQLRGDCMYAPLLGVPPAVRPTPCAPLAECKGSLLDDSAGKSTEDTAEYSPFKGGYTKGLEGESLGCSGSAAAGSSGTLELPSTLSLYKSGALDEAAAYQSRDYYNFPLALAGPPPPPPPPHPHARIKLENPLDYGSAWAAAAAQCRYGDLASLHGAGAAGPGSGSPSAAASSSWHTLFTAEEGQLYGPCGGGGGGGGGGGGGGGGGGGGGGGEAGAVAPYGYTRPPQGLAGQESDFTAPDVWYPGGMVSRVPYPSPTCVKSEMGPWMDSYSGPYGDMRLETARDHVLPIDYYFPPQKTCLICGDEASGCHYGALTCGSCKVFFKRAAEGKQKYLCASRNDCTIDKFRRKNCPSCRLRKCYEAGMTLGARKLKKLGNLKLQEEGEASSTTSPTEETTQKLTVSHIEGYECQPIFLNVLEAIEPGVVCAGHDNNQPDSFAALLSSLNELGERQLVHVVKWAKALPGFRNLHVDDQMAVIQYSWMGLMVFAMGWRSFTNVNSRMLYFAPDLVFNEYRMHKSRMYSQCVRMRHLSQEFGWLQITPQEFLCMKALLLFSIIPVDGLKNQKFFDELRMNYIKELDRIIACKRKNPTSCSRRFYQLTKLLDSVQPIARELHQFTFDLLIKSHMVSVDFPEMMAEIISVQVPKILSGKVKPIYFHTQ
Assay: AR immunofluorescence staining, high content imager, VCaP cells
Format: cell-based
Conditions: for DC50: AR degradation by immunofluorescence; for Dmax: maximal AR degradation
Procedure: AR Immunofluorescence Staining of Cells for the High Content Imager was performed as follows: Following treatment of the cells with compound (using the central 60 wells of a 96-well plate), media was removed by aspiration, followed by addition of 50 μL per well of 4% paraformaldehyde (PFA) in PBS supplemented with 2 mM MgCl2 and 2 mM CaCl2. Fixed cells were incubated at RT for 15 minutes. For particularly low adherence cell lines (e.g., VCaP), a 2× solution of 8% PFA was added directly to wells instead. Cells were washed once with 200 μL PBS/well. To permeabilize cells 50 μL/well of 0.1% Triton X-100 in PBS was added and incubated for 5 minutes. Cells were washed once with 200 μL PBSS/well. 100 μL/well of Licor Odyssey Blocking Buffer was added for 1 hour at 20° C. Wells were aspirated and AR antibody (1:1000 in Licor Odyssey blocking buffer; 50 μL/well; CST 5153s) was added. Plates were incubated overnight at 4° C. Plates were washed 3 times with 200 EL PBS/well. The appropriate secondary antibody was added (50 μL/well; diluted in Licor Odyssey blocking buffer) and incubated for 1 hour at RT in the dark as prepared below using Anti-rabbit FITC (1:5000; […]) and Phalloidin-Alexafluor 648 (1:500; […]). Cells were washed once with 200 μL PBS/well. 50 μL DAPI or Hoechst 33342 diluted 1:1000 in Licor Odyssey blocking buffer was added to the wells. Cells were washed 3 times with 200 μL PBS/well. The plates were covered with a clear plastic sealer and refrigerated in the dark until ready to analyze. The cells were analyzed using a Molecular Devices IXM high content imager and analyzed using Molecular Devices metaXpress software suite.

| SMILES | DC50 [nM] | Dmax [%] |
| --- | --- | --- |
| Cc1cc(O[C@H]2C(C)(C)[C@H](NC(=O)c3ccc(N4CCC(CC5CCN(C67CC(C(=O)NC8CCC(=O)NC8=O)(C6)C7)CC5)CC4)cc3)C2(C)C)cc(C)c1C#N (mixture of isomers) [Compound 70, rac-N-(2,6-dioxopiperidin-3-yl)-3-(4-{[1-(4-{[(1r,3r)-3-(4-cyano-3,5-dimethylphenoxy)-2,2,4,4-tetramethylcyclobutyl]carbamoyl}phenyl)piperidin-4-yl]methyl}piperidin-1-yl)bicyclo[1.1.1]pentane-1-carboxamide] | < 1 | < 50 |
| Cc1cc(O[C@H]2C(C)(C)[C@H](NC(=O)c3ccc(N4CCO[C@H](CN5CCN(c6ccc(C(=O)N[C@@H]7CCC(=O)NC7=O)c(F)c6)CC5)C4)cc3)C2(C)C)cc(C)c1C#N (single isomer, unassigned) [Compound 49] | < 1 | ≥ 70 |
| CC1(C)[C@H](NC(=O)c2ccc(N3CCC(CN4CCN(c5ccc(C(=O)NC6CCC(=O)NC6=O)c(F)c5)CC4)CC3)nn2)C(C)(C)[C@H]1Oc1ccc(C#N)c(Cl)c1 (stereo partly drawn) [Compound 17, N-((1R,3R)-3-(3-chloro-4-cyanophenoxy)-2,2,4,4-tetramethylcyclobutyl)-6-(4-((4-(4-((2,6-dioxopiperidin-3-yl)carbamoyl)-3-fluorophenyl)piperazin-1-yl)methyl)piperidin-1-yl)pyridazine-3-carboxamide] | < 1 | 50 to 70 |
| CC1(C)[C@H](NC(=O)c2cnc(N3CCC(CN4CCN(c5ccc(C(=O)NC6CCC(=O)NC6=O)c(F)c5)CC4)CC3)cn2)C(C)(C)[C@H]1Oc1ccc(C#N)c(Cl)c1 (stereo partly drawn) [Compound 18, N-((1R,3R)-3-(3-chloro-4-cyanophenoxy)-2,2,4,4-tetramethylcyclobutyl)-5-(4-((4-(4-((2,6-dioxopiperidin-3-yl)carbamoyl)-3-fluorophenyl)piperazin-1-yl)methyl)piperidin-1-yl)pyrazine-2-carboxamide] | 1 to 10 | 50 to 70 |
| COc1cc(O[C@H]2C(C)(C)[C@H](NC(=O)c3ccc(N4CCC(CN5CCN(c6ccc(C(=O)N[C@H]7CCC(=O)NC7=O)c(F)c6)CC5)CC4)cc3)C2(C)C)ccc1C#N [Compound 21, 4-(4-((1-(4-(((1R,3R)-3-(4-cyano-3-methoxyphenoxy)-2,2,4,4-tetramethylcyclobutyl)carbamoyl)phenyl)piperidin-4-yl)methyl)piperazin-1-yl)-N—((S)-2,6-dioxopiperidin-3-yl)-2-fluorobenzamide] | < 1 | ≥ 70 |
| N#Cc1ccc(O[C@H]2CC[C@H](NC(=O)c3ccc(N4CCC(CN5CCN(c6ccc(C(=O)NC7CCC(=O)NC7=O)nc6)CC5)CC4)nn3)CC2)cc1Cl (stereo partly drawn) [Compound 22, N-((1R,4R)-4-(3-chloro-4-cyanophenoxy)cyclohexyl)-6-(4-((4-(6-((2,6-dioxopiperidin-3-yl)carbamoyl)pyridin-3-yl)piperazin-1-yl)methyl)piperidin-1-yl)pyridazine-3-carboxamide] | < 1 | ≥ 70 |
| N#Cc1ccc(O[C@H]2CC[C@H](NC(=O)c3ccc(N4CCC(CN5CCN(c6ccc(C(=O)NC7CCC(=O)NC7=O)c(F)c6)CC5)CC4)nn3)CC2)cc1Cl (stereo partly drawn) [Compound 26, N-((1R,4R)-4-(3-chloro-4-cyanophenoxy)cyclohexyl)-6-(4-((4-(4-((2,6-dioxopiperidin-3-yl)carbamoyl)-3-fluorophenyl)piperazin-1-yl)methyl)piperidin-1-yl)pyridazine-3-carboxamide] | < 1 | ≥ 70 |

Further lines, results first:

| DC50 [nM] | Dmax [%] | SMILES |
| --- | --- | --- |
| < 1 | ≥ 70 | COc1cc(O[C@H]2C(C)(C)[C@H](NC(=O)c3ccc(N4CCC(CN5CCN(c6ccc(C(=O)NC7CCC(=O)NC7=O)c(F)c6)CC5)CC4)cc3)C2(C)C)ccc1C#N (stereo partly drawn) [Compound 1, 4-(4-((1-(4-(((1R,3R)-3-(4-cyano-3-methoxyphenoxy)-2,2,4,4-tetramethylcyclobutyl)carbamoyl)phenyl)piperidin-4-yl)methyl)piperazin-1-yl)-N-(2,6-dioxopiperidin-3-yl)-2-fluorobenzamide] |
| 1 to 10 | < 50 | COc1cc(O[C@H]2C(C)(C)[C@H](NC(=O)c3ccc(N4CCC(CN5CCN(c6ccc(C(=O)N[C@@H]7CCC(=O)NC7=O)c(F)c6)CC5)CC4)cc3)C2(C)C)ccc1C#N [Compound 14, 4-(4-((1-(4-(((1R,3R)-3-(4-cyano-3-methoxyphenoxy)-2,2,4,4-tetramethylcyclobutyl)carbamoyl)phenyl)piperidin-4-yl)methyl)piperazin-1-yl)-N—((R)-2,6-dioxopiperidin-3-yl)-2-fluorobenzamide] |
| < 1 | ≥ 70 | CC1(C)[C@H](NC(=O)c2ccc(N3CCC(CN4CCN(c5ccc(C(=O)NC6CCC(=O)NC6=O)c(F)c5)CC4)CC3)cc2)C(C)(C)[C@H]1Oc1ccc(C#N)c(Cl)c1 (stereo partly drawn) [Compound 19, 4-(4-((1-(4-(((1R,3R)-3-(3-chloro-4-cyanophenoxy)-2,2,4,4-tetramethylcyclobutyl)carbamoyl)phenyl)piperidin-4-yl)methyl)piperazin-1-yl)-N-(2,6-dioxopiperidin-3-yl)-2-fluorobenzamide] |
| < 1 | ≥ 70 | Cc1cc(O[C@H]2C(C)(C)[C@H](NC(=O)c3ccc(N4CCC(CN5CCN(c6ccc(C(=O)NC7CCC(=O)NC7=O)c(F)c6)CC5)CC4)cc3)C2(C)C)cc(C)c1C#N (stereo partly drawn) [Compound 20, 4-(4-((1-(4-(((1R,3R)-3-(4-cyano-3,5-dimethylphenoxy)-2,2,4,4-tetramethylcyclobutyl)carbamoyl)phenyl)piperidin-4-yl)methyl)piperazin-1-yl)-N-(2,6-dioxopiperidin-3-yl)-2-fluorobenzamide] |
| < 1 | ≥ 70 | N#Cc1ccc(O[C@H]2CC[C@H](NC(=O)c3ccc(N4CCC(CN5CCN(c6ccc(C(=O)NC7CCC(=O)NC7=O)cc6)CC5)CC4)nn3)CC2)cc1Cl (stereo partly drawn) [Compound 23, N-[4-(3-chloro-4-cyano-phenoxy)cyclohexyl]-6-[4-[[4-[4-[(2,6-dioxo-3-piperidyl)carbamoyl]phenyl]piperazin-1-yl]methyl]-1-piperidyl]pyridazine-3-carboxamide] |
| < 1 | ≥ 70 | CC(C)N(CC1CCN(c2cnc(C(=O)N[C@H]3CC[C@H](Oc4ccc(C#N)c(Cl)c4)CC3)cn2)CC1)[C@H]1C[C@H](Oc2ccc(C(=O)NC3CCC(=O)NC3=O)nc2)C1 (stereo partly drawn) [Compound 24, N-[4-(3-chloro-4-cyano-phenoxy)cyclohexyl]-5-[4-[[[3-[[6-[(2,6-dioxo-3-piperidyl)carbamoyl]-3-pyridyl]oxy]cyclobutyl]-isopropyl-amino]methyl]-1-piperidyl]pyrazine-2-carboxamide] |
| < 1 | 50 to 70 | CC(C)N(CC1CCN(c2cnc(C(=O)N[C@H]3CC[C@H](Oc4ccc(C#N)c(Cl)c4)CC3)cn2)CC1)[C@H]1C[C@H](Oc2ccc(C(=O)NC3CCC(=O)NC3=O)c(F)c2)C1 (stereo partly drawn) [Compound 25, N-((1R,4R)-4-(3-chloro-4-cyanophenoxy)cyclohexyl)-5-(4-((((1R,3R)-3-(4-((2,6-dioxopiperidin-3-yl)carbamoyl)-3-fluorophenoxy)cyclobutyl)(isopropyl)amino)methyl)piperidin-1-yl)pyrazine-2-carboxamide] |
| < 1 | ≥ 70 | CC(C)N(CC1CCN(c2cnc(C(=O)N[C@H]3CC[C@H](Oc4ccc(C#N)c(Cl)c4)CC3)cn2)CC1)[C@H]1C[C@H](Oc2ccc(C(=O)NC3CCC(=O)NC3=O)cc2)C1 (stereo partly drawn) [Compound 27, N-[4-(3-chloro-4-cyano-phenoxy)cyclohexyl]-5-[4-[[[3-[4-[(2,6-dioxo-3-piperidyl)carbamoyl]phenoxy]cyclobutyl]-isopropyl-amino]methyl]-1-piperidyl]pyrazine-2-carboxamide] |
